# US6875451B2, “Compositions and methods for the treatment of primary and metastatic neoplastic diseases using arsenic compounds” (PolaRx Biopharmaceuticals Inc., priority 1997, dated 2005)
# Where two headings read alike, the source gives them in different places.
# Experiments:
# Type in all cases: cell-based
# [1] = tested on: SF-539; experiment: SRB growth assay, 2 days exposure, CNS cancer
# Description: (§1) Arsenic trioxide (1 mg/ml, 10 mg/ampoule, manufactured by Taylor Pharmaceuticals, Decatur, Ill.) was tested at five concentrations each at 10-fold dilutions, i.e., 10^−5, 10^−6, 10^−7, 10^−8 and 10^−9 μg/ml.
# (§2) The in vitro tests were performed by incubating the test cells in the presence of the indicated concentration of arsenic trioxide under standard culture conditions for a designated period of time, which is followed by a sulforhodamine B (SRB) protein assay to estimate cell viability or growth. The cell lines are organized into subpanels according to the origin of the cell lines, e.g., leukemia, breast cancer, etc. A description of the cell lines and method of testing is described in Monk et al. (1997, Anticancer Drug Des. 12:533-41) and Weinstein et al., (1997, Science 275:343-9), which are incorporated herein in their entirety.
# (§3) The measurement of an effect is expressed in Percentage Growth (PG). The measured effect of the compound on a cell line is calculated according to one or the other of the following two expressions: If (Mean ODtest−Mean ODzero)≧0. then PG=100×(Mean ODtest−Mean ODzero)/(Mean ODctrl−Mean ODzero) If (Mean ODtest−Mean ODzero)<0. then PG=100×(Mean ODtest−Mean ODzero)/(Mean ODzero where: • Mean ODzero=the average of optical density measurements of SRB-derived color just before exposure of cells to the test compounds; • Mean ODtest=the average of optical density measurements of SRB-derived color after exposure of cells to the test compound for a designated period of time; and • Mean ODctrl=the average of optical density measurements of SRB-derived color after with no exposure of cells to the test compound for a designated period of time
# (§4) The first two columns describe the subpanel (e.g., leukemia) and cell line (e.g., CCRF-CEM) involved. The next two columns list the Mean ODzero and Mean ODctrl; the next five columns list the Mean ODtest for each of five different concentrations. Each concentration is expressed as the log10 (molar or μg/ml). The next five columns list the calculated PGs for each concentration. The response parameters GI50, TGI and LC50 are interpolated values representing the concentrations at which the PG is +50, 0, and −50, respectively. Sometimes these response parameters cannot be obtained by interpolation. If, for instance, all of the PGs in a given row exceed +50, then none of the three parameters can be obtained by interpolation. In such a case, the value given for each response parameter is the highest concentration tested and is preceded by a “>” sign. This practice is extended similarly to the other possible situations where a response parameter cannot be obtained by interpolation.
# (§5) In the first set, the cells from 56 different cancer cell lines were exposed to five concentrations of arsenic trioxide continuously for two days prior to performing the SRB assay. In the second set, the cells from 50 different cell lines (a subset of the first 56 cell lines, plus the renal cancer cell line 786-0) were exposed continuously for six days prior to the SRB assay.
# [2] = tested on: IGROVI; experiment: SRB growth assay, 6 days exposure, ovarian cancer; conditions: IGROV1, 6 days
# Description: as §1, §2, §3, §4, §5
# [3] = tested on: OVCAR-3; experiment: SRB growth assay, 6 days exposure, ovarian cancer; conditions: OVCAR-3, 6 days
# Description: as §1, §2, §3, §4, §5
# [4] = tested on: OVCAR-8; experiment: SRB growth assay, 6 days exposure, ovarian cancer; conditions: OVCAR-8, 6 days
# Description: as §1, §2, §3, §4, §5
# [5] = tested on: OVCAR-5; experiment: SRB growth assay, 6 days exposure, ovarian cancer; conditions: OVCAR-5, 6 days
# Description: as §1, §2, §3, §4, §5
# [6] = tested on: SK-OV-3; experiment: SRB growth assay, 6 days exposure, ovarian cancer; conditions: SK-OV-3, 6 days
# Description: as §1, §2, §3, §4, §5
# [7] = tested on: HL-60(TB); conditions: 2 days
# [8] = tested on: MOLT-4; experiment: SRB growth assay, 6 days exposure, leukemia; conditions: MOLT-4, 6 days
# Description: as §1, §2, §3, §4, §5
# [9] = tested on: RPMI-8226; experiment: SRB growth assay, 6 days exposure, leukemia; conditions: RPMI-8226, 6 days
# Description: as §1, §2, §3, §4, §5
# [10] = read-out: LC50 (the source's name)
substance,measurement,setting,value
arsenic trioxide,TGI,[1],0.00885 ng/mL
same,Percent Growth,[1]; log10 conc −4.9,−17%
same,Percent Growth,[1]; log10 conc −5.9,92%
same,Percent Growth,[1]; log10 conc −6.9,113%
same,Percent Growth,[1]; log10 conc −7.9,117%
same,Percent Growth,[1]; log10 conc −8.9,109%
same,TGI,[2],6.62E−06
same,Mean Optical Densities,[2]; Log 10 Concentration −4.9,0.216
same,Percent Growth,[2]; Log 10 Concentration −4.9,−36%
same,Mean Optical Densities,[2]; Log 10 Concentration −5.9,2.877
same,Percent Growth,[2]; Log 10 Concentration −5.9,91%
same,Mean Optical Densities,[2]; Log 10 Concentration −6.9,3.204
same,Percent Growth,[2]; Log 10 Concentration −6.9,103%
same,Mean Optical Densities,[2]; Log 10 Concentration −7.9,3.056
same,Percent Growth,[2]; Log 10 Concentration −7.9,98%
same,Mean Optical Densities,[2]; Log 10 Concentration −8.9,3.541
same,Percent Growth,[2]; Log 10 Concentration −8.9,115%
same,CC50,[2]; [10],> 12.6 µM
same,TGI,[3],2.36E−06
same,Mean Optical Densities,[3]; Log 10 Concentration −4.9,0.001
same,Percent Growth,[3]; Log 10 Concentration −4.9,−99%
same,Mean Optical Densities,[3]; Log 10 Concentration −5.9,0.482
same,Percent Growth,[3]; Log 10 Concentration −5.9,37%
same,Mean Optical Densities,[3]; Log 10 Concentration −6.9,1.124
same,Percent Growth,[3]; Log 10 Concentration −6.9,97%
same,Mean Optical Densities,[3]; Log 10 Concentration −7.9,1.128
same,Percent Growth,[3]; Log 10 Concentration −7.9,98%
same,Mean Optical Densities,[3]; Log 10 Concentration −8.9,1.047
same,Percent Growth,[3]; Log 10 Concentration −8.9,90%
same,TGI,[4],3.21E−06
same,Mean Optical Densities,[4]; Log 10 Concentration −4.9,−0.001
same,Percent Growth,[4]; Log 10 Concentration −4.9,−100%
same,Mean Optical Densities,[4]; Log 10 Concentration −5.9,1.437
same,Percent Growth,[4]; Log 10 Concentration −5.9,68%
same,Mean Optical Densities,[4]; Log 10 Concentration −6.9,2.242
same,Percent Growth,[4]; Log 10 Concentration −6.9,107%
same,Mean Optical Densities,[4]; Log 10 Concentration −7.9,1.848
same,Percent Growth,[4]; Log 10 Concentration −7.9,88%
same,Mean Optical Densities,[4]; Log 10 Concentration −8.9,2.272
same,Percent Growth,[4]; Log 10 Concentration −8.9,109%
same,TGI,[5],7.53E−06
same,Mean Optical Densities,[5]; Log 10 Concentration −4.9,0.028
same,Percent Growth,[5]; Log 10 Concentration −4.9,−26%
same,Mean Optical Densities,[5]; Log 10 Concentration −5.9,1.287
same,Percent Growth,[5]; Log 10 Concentration −5.9,91%
same,Mean Optical Densities,[5]; Log 10 Concentration −6.9,1.478
same,Percent Growth,[5]; Log 10 Concentration −6.9,105%
same,Mean Optical Densities,[5]; Log 10 Concentration −7.9,1.460
same,Percent Growth,[5]; Log 10 Concentration −7.9,104%
same,Mean Optical Densities,[5]; Log 10 Concentration −8.9,1.433
same,Percent Growth,[5]; Log 10 Concentration −8.9,102%
same,CC50,[5]; [10],> 12.6 µM
same,TGI,[6],5.27E−06
same,Mean Optical Densities,[6]; Log 10 Concentration −4.9,0.020
same,Percent Growth,[6]; Log 10 Concentration −4.9,−51%
same,Mean Optical Densities,[6]; Log 10 Concentration −5.9,1.247
same,Percent Growth,[6]; Log 10 Concentration −5.9,84%
same,Mean Optical Densities,[6]; Log 10 Concentration −6.9,1.461
same,Percent Growth,[6]; Log 10 Concentration −6.9,99%
same,Mean Optical Densities,[6]; Log 10 Concentration −7.9,1.410
same,Percent Growth,[6]; Log 10 Concentration −7.9,96%
same,Mean Optical Densities,[6]; Log 10 Concentration −8.9,1.445
same,Percent Growth,[6]; Log 10 Concentration −8.9,98%
same,TGI,[7],0.0103 ng/mL
same,Percent Growth,[7]; log10 conc −4.9,−9%
same,Percent Growth,[7]; log10 conc −5.9,90%
same,Percent Growth,[7]; log10 conc −6.9,102%
same,Percent Growth,[7]; log10 conc −7.9,92%
same,Percent Growth,[7]; log10 conc −8.9,101%
same,TGI,[8],>1.26E−05
same,Mean Optical Densities,[8]; Log 10 Concentration −4.9,0.113
same,Percent Growth,[8]; Log 10 Concentration −4.9,20%
same,Mean Optical Densities,[8]; Log 10 Concentration −5.9,0.245
same,Percent Growth,[8]; Log 10 Concentration −5.9,47%
same,Mean Optical Densities,[8]; Log 10 Concentration −6.9,0.432
same,Percent Growth,[8]; Log 10 Concentration −6.9,85%
same,Mean Optical Densities,[8]; Log 10 Concentration −7.9,0.228
same,Percent Growth,[8]; Log 10 Concentration −7.9,43%
same,Mean Optical Densities,[8]; Log 10 Concentration −8.9,0.554
same,Percent Growth,[8]; Log 10 Concentration −8.9,111%
same,Mean Optical Densities,[9]; Log 10 Concentration −4.9,0.065
same,Percent Growth,[9]; Log 10 Concentration −4.9,−2%
same,Mean Optical Densities,[9]; Log 10 Concentration −5.9,0.368
same,Percent Growth,[9]; Log 10 Concentration −5.9,22%
same,Mean Optical Densities,[9]; Log 10 Concentration −6.9,1.423
same,Percent Growth,[9]; Log 10 Concentration −6.9,99%
same,Mean Optical Densities,[9]; Log 10 Concentration −7.9,1.263
same,Percent Growth,[9]; Log 10 Concentration −7.9,88%
same,Mean Optical Densities,[9]; Log 10 Concentration −8.9,1.607
same,Percent Growth,[9]; Log 10 Concentration −8.9,113%
same,CC50,[9]; [10],> 12.6 µM
